Reference: PubChem BioAssay AID1963437 (Molecular Pharmacology Branch, DTP, NCI, 2024)

System: OVCAR-8 complex spheroid, growth inhibition
Test: Anticancer human tumor OVCAR-8 cell line growth inhibition [Asc];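 note: spheroids exposed to agents for 7 days before readout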;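 for viability, T/C: percent viability relative to DMSO vehicle wells taken as 100%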
Details: for IC50: curve of first compound; for viability, T/C: stronger effect = lower value; active = viability on the fitted dose curve at most 10% of control; inactive = the rest
In short: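 Stromal components (HUVEC and hMSC) are co-assembled with the cancer cells into multicellular spheroids. Drugs are then added singly or paired, at concentrations falling by half-log increments from a clinically achievable maximum, capped at 10 microM without known Cmax.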

[1] = second compound 0.0316 µM, first compound 0.00316 µM
[2] = second compound 0.0316 µM, first compound 0.01 µM
[3] = second compound 0.0316 µM, first compound 0.0316 µM
[4] = second compound 0.0316 µM, first compound 0.1 µM
[5] = second compound 0.0316 µM, first compound 0.316 µM
[6] = second compound 0.0316 µM, first compound 1 µM
[7] = second compound 0.1 µM, first compound 0.00316 µM
[8] = second compound 0.1 µM, first compound 0.01 µM
[9] = second compound 0.1 µM, first compound 0.0316 µM
[10] = second compound 0.1 µM, first compound 0.1 µM
[11] = second compound 0.1 µM, first compound 0.316 µM
[12] = second compound 0.1 µM, first compound 1 µM
[13] = second compound 0.316 µM, first compound 0.00316 µM
[14] = second compound 0.316 µM, first compound 0.01 µM
[15] = second compound 0.316 µM, first compound 0.0316 µM
[16] = second compound 0.316 µM, first compound 0.1 µM
[17] = second compound 0.316 µM, first compound 0.316 µM
[18] = second compound 0.316 µM, first compound 1 µM
[19] = second compound 1 µM, first compound 0.00316 µM
[20] = second compound 1 µM, first compound 0.01 µM
[21] = second compound 1 µM, first compound 0.0316 µM
[22] = second compound 1 µM, first compound 0.1 µM
[23] = second compound 1 µM, first compound 0.316 µM
[24] = second compound 1 µM, first compound 1 µM
[25] = second compound 3.16 µM, first compound 0.00316 µM
[26] = second compound 3.16 µM, first compound 0.01 µM
[27] = second compound 3.16 µM, first compound 0.0316 µM
[28] = second compound 3.16 µM, first compound 0.1 µM
[29] = second compound 3.16 µM, first compound 0.316 µM
[30] = second compound 3.16 µM, first compound 1 µM
[31] = second compound 10 µM, first compound 0.00316 µM
[32] = second compound 10 µM, first compound 0.01 µM
[33] = second compound 10 µM, first compound 0.0316 µM
[34] = second compound 10 µM, first compound 0.1 µM
[35] = second compound 10 µM, first compound 0.316 µM
[36] = second compound 10 µM, first compound 1 µM

CCN1CCN(Cc2ccc(Nc3ncc(F)c(-c4cc(F)c5nc(C)n(C(C)C)c5c4)n3)nc2)CC1 + Cc1c(S(C)(=O)=O)c(-c2cc(F)cc(N3CCN(c4ccc(NS(=O)(=O)c5ccc(NC(CCN6CCC(C(=O)OCCCP(=O)(O)O)CC6)CSc6ccccc6)c(S(=O)(=O)C(F)(F)F)c5)cc4)CC3)c2)c(-c2ccc(Cl)cc2)n1C(C)C
> 1 µM: IC50 (second compound 0.0316 µM) | IC50 (second compound 0.1 µM) | IC50 (second compound 0.316 µM) | IC50 (second compound 1 µM) | IC50 (second compound 3.16 µM) | IC50 (second compound 10 µM)
inactive: viability, T/C [1] 102% | viability, T/C [2] 96.1% | viability, T/C [3] 95.6% | viability, T/C [4] 98.2% | viability, T/C [5] 112% | viability, T/C [6] 128% | viability, T/C [7] 90.3% | viability, T/C [8] 87.8% | viability, T/C [9] 90.4% | viability, T/C [10] 101% | viability, T/C [11] 112% | viability, T/C [12] 118% | viability, T/C [13] 93.6% | viability, T/C [14] 97.5% | viability, T/C [15] 103% | viability, T/C [16] 107% | viability, T/C [17] 117% | viability, T/C [18] 121% | viability, T/C [19] 89.1% | viability, T/C [20] 105% | viability, T/C [21] 99.7% | viability, T/C [22] 107% | viability, T/C [23] 97.5% | viability, T/C [24] 122% | viability, T/C [25] 108% | viability, T/C [26] 92.3% | viability, T/C [27] 103% | viability, T/C [28] 89.7% | viability, T/C [29] 106% | viability, T/C [30] 95.4% | viability, T/C [31] 105% | viability, T/C [32] 111% | viability, T/C [33] 90.2% | viability, T/C [34] 116% | viability, T/C [35] 93.1% | viability, T/C [36] 109%

Cn1ncnc1[C@H]1c2n[nH]c(=O)c3cc(F)cc(c23)N[C@@H]1c1ccc(F)cc1 + Cc1c(S(C)(=O)=O)c(-c2cc(F)cc(N3CCN(c4ccc(NS(=O)(=O)c5ccc(NC(CCN6CCC(C(=O)OCCCP(=O)(O)O)CC6)CSc6ccccc6)c(S(=O)(=O)C(F)(F)F)c5)cc4)CC3)c2)c(-c2ccc(Cl)cc2)n1C(C)C
> 0.1 µM: IC50 (second compound 0.0316 µM) | IC50 (second compound 0.1 µM) | IC50 (second compound 0.316 µM) | IC50 (second compound 1 µM) | IC50 (second compound 3.16 µM) | IC50 (second compound 10 µM)
inactive: viability, T/C (second compound 0.0316 µM, first compound 0.000316 µM) 96.3% | viability, T/C (second compound 0.0316 µM, first compound 0.001 µM) 94.8% | viability, T/C [1] 90% | viability, T/C [2] 103% | viability, T/C [3] 127% | viability, T/C [4] 149% | viability, T/C (second compound 0.1 µM, first compound 0.000316 µM) 103% | viability, T/C (second compound 0.1 µM, first compound 0.001 µM) 106% | viability, T/C [7] 115% | viability, T/C [8] 123% | viability, T/C [9] 123% | viability, T/C [10] 155% | viability, T/C (second compound 0.316 µM, first compound 0.000316 µM) 122% | viability, T/C (second compound 0.316 µM, first compound 0.001 µM) 101% | viability, T/C [13] 111% | viability, T/C [14] 101% | viability, T/C [15] 141% | viability, T/C [16] 158% | viability, T/C (second compound 1 µM, first compound 0.000316 µM) 106% | viability, T/C (second compound 1 µM, first compound 0.001 µM) 109% | viability, T/C [19] 106% | viability, T/C [20] 110% | viability, T/C [21] 125% | viability, T/C [22] 160% | viability, T/C (second compound 3.16 µM, first compound 0.000316 µM) 130% | viability, T/C (second compound 3.16 µM, first compound 0.001 µM) 120% | viability, T/C [25] 92.8% | viability, T/C [26] 115% | viability, T/C [27] 138% | viability, T/C [28] 161% | viability, T/C (second compound 10 µM, first compound 0.000316 µM) 124% | viability, T/C (second compound 10 µM, first compound 0.001 µM) 93.1% | viability, T/C [31] 88.3% | viability, T/C [32] 127% | viability, T/C [33] 169% | viability, T/C [34] 164%

O=C(c1cc(Cc2n[nH]c(=O)c3ccccc23)ccc1F)N1CCN(C(=O)C2CC2)CC1 + Cc1c(S(C)(=O)=O)c(-c2cc(F)cc(N3CCN(c4ccc(NS(=O)(=O)c5ccc(NC(CCN6CCC(C(=O)OCCCP(=O)(O)O)CC6)CSc6ccccc6)c(S(=O)(=O)C(F)(F)F)c5)cc4)CC3)c2)c(-c2ccc(Cl)cc2)n1C(C)C
inactive: viability, T/C [3] 95.1% | viability, T/C [4] 97% | viability, T/C [5] 88.2% | viability, T/C [6] 102% | viability, T/C (second compound 0.0316 µM, first compound 3.16 µM) 137% | viability, T/C (second compound 0.0316 µM, first compound 10 µM) 114% | viability, T/C [9] 100% | viability, T/C [10] 87.9% | viability, T/C [11] 92.5% | viability, T/C [12] 98.2% | viability, T/C (second compound 0.1 µM, first compound 3.16 µM) 115% | viability, T/C (second compound 0.1 µM, first compound 10 µM) 137% | viability, T/C [15] 103% | viability, T/C [16] 101% | viability, T/C [17] 105% | viability, T/C [18] 110% | viability, T/C (second compound 0.316 µM, first compound 3.16 µM) 161% | viability, T/C (second compound 0.316 µM, first compound 10 µM) 130% | viability, T/C [21] 132% | viability, T/C [22] 96.7% | viability, T/C [23] 120% | viability, T/C [24] 120% | viability, T/C (second compound 1 µM, first compound 3.16 µM) 152% | viability, T/C (second compound 1 µM, first compound 10 µM) 109% | viability, T/C [27] 134% | viability, T/C [28] 106% | viability, T/C [29] 100% | viability, T/C [30] 104% | viability, T/C (second compound 3.16 µM, first compound 3.16 µM) 140% | viability, T/C (second compound 3.16 µM, first compound 10 µM) 107% | viability, T/C [33] 125% | viability, T/C [34] 107% | viability, T/C [35] 112% | viability, T/C [36] 124% | viability, T/C (second compound 10 µM, first compound 3.16 µM) 159% | viability, T/C (second compound 10 µM, first compound 10 µM) 98.9%
> 10 µM: IC50 (second compound 0.0316 µM) | IC50 (second compound 0.1 µM) | IC50 (second compound 0.316 µM) | IC50 (second compound 1 µM) | IC50 (second compound 3.16 µM) | IC50 (second compound 10 µM)

O=C(c1ccc(F)c(F)c1Nc1ccc(I)cc1F)N1CC(O)([C@@H]2CCCCN2)C1 + Cc1c(S(C)(=O)=O)c(-c2cc(F)cc(N3CCN(c4ccc(NS(=O)(=O)c5ccc(NC(CCN6CCC(C(=O)OCCCP(=O)(O)O)CC6)CSc6ccccc6)c(S(=O)(=O)C(F)(F)F)c5)cc4)CC3)c2)c(-c2ccc(Cl)cc2)n1C(C)C
inactive: viability, T/C [1] 103% | viability, T/C [2] 114% | viability, T/C [3] 140% | viability, T/C [4] 173% | viability, T/C [5] 234% | viability, T/C [6] 135% | viability, T/C [7] 110% | viability, T/C [8] 134% | viability, T/C [9] 160% | viability, T/C [10] 199% | viability, T/C [11] 254% | viability, T/C [12] 122% | viability, T/C [13] 115% | viability, T/C [14] 115% | viability, T/C [15] 157% | viability, T/C [16] 204% | viability, T/C [17] 244% | viability, T/C [18] 139% | viability, T/C [19] 129% | viability, T/C [20] 157% | viability, T/C [21] 195% | viability, T/C [22] 228% | viability, T/C [23] 258% | viability, T/C [24] 126% | viability, T/C [25] 125% | viability, T/C [26] 137% | viability, T/C [27] 197% | viability, T/C [28] 228% | viability, T/C [29] 253% | viability, T/C [30] 99.5% | viability, T/C [31] 154% | viability, T/C [32] 141% | viability, T/C [33] 183% | viability, T/C [34] 224% | viability, T/C [35] 234% | viability, T/C [36] 107%
> 1 µM: IC50 (second compound 0.0316 µM) | IC50 (second compound 0.1 µM) | IC50 (second compound 0.316 µM) | IC50 (second compound 1 µM) | IC50 (second compound 3.16 µM) | IC50 (second compound 10 µM)
